Assay results reported in patent US7138361B2, “Herbicidal heterocycles” (E. I. du Pont de Nemours and Company, priority 2000, dated 2006).

Experiments:
Format in all cases: in vivo
[1] = test system: barnyardgrass (Echinochloa crus-galli); assay: Test B postemergence; conditions: 13 to 15 days
How it was run: (§1)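 Pre: seeded pots sprayed, chemical in non-phytotoxic solvent/surfactant mix. Post: plants 2–18 cm, 1–4 leaf, same formulation. Greenhouse 13–15 d; visual % control vs untreated, 0–100 scale.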

corn (Zea mays) = assay: Test B postemergence; conditions: 13 to 15 days
How it was run: as §1

[2] = test system: wheat (Triticum aestivum); assay: Test B postemergence; conditions: 13 to 15 days
How it was run: as §1

wild oat (Avena fatua) = assay: Test B postemergence; conditions: 13 to 15 days
How it was run: as §1

[3] = test system: barnyardgrass (Echinochloa crus-galli); assay: Test C flooded paddy test; conditions: for Barnyardgrass plant response rating: scale 0 to 100, 0 no effect, 100 complete control
How it was run: (§2)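 Greenhouse-maintained for 12 to 14 days after treatment, the paddy plants (2-leaf stage at application) were scored visually against controls. A score of 0 denotes no effect and a score of 100 denotes complete control.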

[4] = test system: duck salad (Heteranthera limosa); assay: Test C flooded paddy test; conditions: for Ducksalad plant response rating: scale 0 to 100, 0 no effect, 100 complete control
How it was run: as §2

rice (Oryza saliva) = assay: Test C flooded paddy test; conditions: for Rice plant response rating: scale 0 to 100, 0 no effect, 100 complete control
How it was run: as §2

[5] = test system: smallflower flatsedge (Cyperus difformis); assay: Test C flooded paddy test; conditions: for Flatsedge plant response rating: Flooded Paddy, scale 0 to 100, 0 no effect, 100 complete control; for Plant response rating, Flatsedge / Plant response rating (scale 0 to 100), Flatsedge: flooded paddy test; for Plant response rating, Flatsedge: scale 0 to 100 (0 no effect, 100 complete control)
How it was run: as §2

[6] = Rate 125 g/ha, scale 0 (no effect) to 100 (complete control)
[7] = Rate 250 g/ha, scale 0 (no effect) to 100 (complete control)
[8] = Rate 500 g/ha, scale 0 to 100, 0 is no effect, 100 is complete control
[9] = Flooded Paddy, Rate 500 g/ha, scale 0 to 100
[10] = flooded paddy test, Rate 62 g/ha, scale 0 to 100 (0 no effect, 100 complete control)
[11] = flooded paddy test, Rate 125 g/ha, scale 0 to 100 (0 no effect, 100 complete control)
[12] = flooded paddy test, Rate 16 g/ha, visually evaluated after 12 to 14 days, 0 = no effect, 100 = complete control
[13] = Rate 16 g/ha, visually evaluated after 12 to 14 days, 0 = no effect, 100 = complete control
[14] = flooded paddy test, under head Rate 16 g/ha, (own rate not given), after 12 to 14 days

| SMILES | Plant response rating, Barnyardgrass [1, 6] | Plant response rating, Barnyardgrass [1, 8] | Plant response rating, Corn (corn (Zea mays); [6]) | Plant response rating, Corn (corn (Zea mays); [8]) | Plant response rating, Wheat [2, 6] | Plant response rating, Wheat [2, 8] | Plant response rating, Wild Oat (wild oat (Avena fatua); [6]) | Plant response rating, Wild Oat (wild oat (Avena fatua); [8]) | Barnyardgrass plant response rating ([3]; Flooded Paddy, Rate 250 g/ha) | Plant response rating, Barnyardgrass [3, 10] | Plant response rating, Barnyardgrass [3, 11] | Ducksalad plant response rating ([4]; Flooded Paddy, Rate 250 g/ha) | Plant response rating, Ducksalad [4, 10] | Plant response rating, Ducksalad [4, 11] | Rice plant response rating (rice (Oryza saliva); Flooded Paddy, Rate 250 g/ha) | Plant response rating, Rice (rice (Oryza saliva); [10]) | Plant response rating, Rice (rice (Oryza saliva); [11]) | Flatsedge plant response rating ([5]; Rate 250 g/ha) | Flatsedge plant response rating ([5]; Rate 500 g/ha) | Plant response rating, Flatsedge ([5]; Rate 62 g/ha) | also measured |
| --- | --- | --- | --- | --- | --- | --- | --- | --- | --- | --- | --- | --- | --- | --- | --- | --- | --- | --- | --- | --- | --- |
| CC1(C)CCc2cn(C3CCN(c4cccc(C(F)(F)F)c4)C3=O)nc21 (stereo not shown) [Compound 10] | 0 | 0 | 0 | 0 | 0 | 0 | 0 | 0 | 40 | 0 | 0 | 90 | 0 | 20 | 10 | 0 | 0 | 100 | 100 | 50 | Plant response rating, Barnyardgrass [1, 7]: 0; Plant response rating, Corn (corn (Zea mays); [7]): 0; Plant response rating, Wheat [2, 7]: 0; Plant response rating, Wild Oat (wild oat (Avena fatua); [7]): 0; Plant response rating, Barnyardgrass [3, 9]: 80; Plant response rating (scale 0 to 100), Barnyardgrass [3, 12]: 0; Plant response rating, Ducksalad [4, 9]: 90; Plant response rating (scale 0 to 100), Ducksalad [4, 12]: 0; Plant response rating, Rice (rice (Oryza saliva); [9]): 60; Plant response rating (scale 0 to 100), Rice (rice (Oryza saliva); [12]): 0; Plant response rating, Flatsedge ([5]; Rate 125 g/ha): 80; Plant response rating (scale 0 to 100), Flatsedge [5, 13]: 30 |
| CCC(C)c1ccn(C2OCN(c3cccc(C(F)(F)F)c3)C2=O)n1 (stereo not shown) [Compound 24] | 70 | 100 | 0 | 50 | 0 | 0 | 0 | 0 | 100 | 100 | 100 | 100 | 60 | 100 | 30 | 0 | 20 | 100 | 100 | 100 | Barnyardgrass plant response rating ([3]; Flooded Paddy, Rate 500 g/ha): 100; Plant response rating (scale 0 to 100), Barnyardgrass [3, 12]: 100; Plant response rating (scale 0 to 100), Barnyardgrass [3, 14]: 80; Ducksalad plant response rating ([4]; Flooded Paddy, Rate 500 g/ha): 100; Plant response rating (scale 0 to 100), Ducksalad [4, 12]: 50; Plant response rating (scale 0 to 100), Ducksalad [4, 14]: 50; Rice plant response rating (rice (Oryza saliva); Flooded Paddy, Rate 500 g/ha): 60; Plant response rating (scale 0 to 100), Rice (rice (Oryza saliva); [12]): 20; Plant response rating (scale 0 to 100), Rice (rice (Oryza saliva); [14]): 20; Plant response rating, Flatsedge ([5]; Rate 125 g/ha): 100; Plant response rating (scale 0 to 100), Flatsedge [5, 13]: 100; Plant response rating (scale 0 to 100), Flatsedge ([5]; under head Rate 16 g/ha, (own rate not given), after 12 to 14 days): 100 |
| O=C1C(n2ccc(C3CC3)n2)SCN1c1cccc(C(F)(F)F)c1 (stereo not shown) [Compound 26] | 0 | 80 | 0 | 70 | 0 | 0 | 0 | 0 | 80 | 0 | 50 | 100 | 0 | 80 | 80 | 0 | 40 | 95 | 95 | 90 | Barnyardgrass plant response rating ([3]; Flooded Paddy, Rate 500 g/ha): 100; Ducksalad plant response rating ([4]; Flooded Paddy, Rate 500 g/ha): 70; Rice plant response rating (rice (Oryza saliva); Flooded Paddy, Rate 500 g/ha): 80; Plant response rating, Flatsedge ([5]; Rate 125 g/ha): 90 |
